Source: article PMC12916490 (Molecular Psychiatry, 2025)
pEC50, pKi: −log10 of the molar value. Read-outs that look alike come from different tables or passages of the source.

Legend:
hSERT = molecular target: T1, hSERT (Homo sapiens, UniProt P31645); test: Radioligand binding, hSERT ([3H]citalopram)
T1 construct: expressed in transfected cells; host or cells: HEK 293 cells (membrane preparation)
Procedure: (§1) Binding affinities at human monoamine receptors and transporters were assessed as previously reported. A detailed description of the methodology is provided in the Supplementary information.
(§2) The IC50 values from the radioligand binding assays were determined by nonlinear regression, using three independent concentration-response curves fitted to a one-site model. The Cheng-Prusoff equation was used to calculate Kᵢ values for the competing ligands. EC50 values were determined by applying nonlinear regression to concentration-response curves. Bias factors (β) were calculated based on the relative intrinsic activity approach. More detailed information can be found in the Supplementary information. Mean values for total number of HTR, change in body temperature from pre to post session (Δ°C), and total distance traveled (cm) for each drug dose were compared (p < 0.05) via Welch’s ANOVA with Dunnett’s T3 post test, comparing all doses to respective vehicle controls (0 mg/kg). Welch’s ANOVA with Dunnett’s T3 post test was also used to compare drug concentrations, but the data were compared to DOM in this case. Dose–response relationships for HTR and locomotor activities were plotted using bell-shaped curve fits, while temperature change data were plotted using four-parameter non-linear regression curve fits. The ascending phase of the HTR curve for each drug was used to determine ED50 potency values from four parameter non-linear regression fits. For combined DOM and DOAM administration, the plasma, brain tissue, and brain dialysate drug concentrations were compared using paired t-tests (p < 0.05).
(§3) 3.1 Assessment of receptor and transporter binding affinities
(§4) Membrane preparations were prepared from cells transfected with the respective target. The membrane preparations were then incubated with selective radioligands at concentrations equal to the corresponding Kd and displacement of the ligand by the drugs was measured. The difference between total binding and nonspecific binding (determined in the presence of selective competitors) was defined as specific binding of the radioligand to the target receptor. The following transfected cell lines were used for the binding assays: HEK 293 cells (h5-HT1A, h5-HT2A, h5-HT2B, h5-HT2C, and hD2 receptors, hDAT, hNET, and hSERT), Chinese hamster ovary cells (hα 1A receptor), and Chinese hamster lung cells (hα 2A receptor).
(§5) 3.1.1 Membrane preparations for receptor and transporter binding
(§6) For producing membrane preparations, transfected cells were harvested with trypsin/EDTA, washed with ice-cold phosphate buffered saline, and then pelleted by centrifugation (210 × g for 5 min at 4 °C). The pellets were frozen and stored at -80 °C until use. Frozen pellets were resuspended in 20 m L (receptor binding) or 400 m L (transporter binding) buffer (20 mM HEPES -NaOH, 10 mM EDTA, pH 7.4), and homogenized at 1,100 × g for 20 s (receptor binding) or 560 × g for 15 s (transporter binding); the homogenates were then centrifuged at 48,000 × g for 30 min at 4 °C. For receptor binding assays, the supernatants were discarded and the pellets were resuspended in 20 mL buffer (20 mM HEPES-NaOH, 0.1 mM EDTA, pH 7.4) and homogenized at 1 ,100 × g for 20 s. Centrifugation and discarding of the supernatant were repeated once, and the final pellet was then resuspended in buffer and homogenized.
(§7) 3.1.2 Serotonin 5-HT1A and 5-HT2A receptor binding
(§8) Competitive binding at the h5-HT1A and h5-HT2A receptor was determined using 0.90 nM [ 3H]8-hydroxy-2-(di-n-propylamine)tetralin ([ 3H]8-OH-DPAT; h5-HT1A receptor agonist) and 0.40 nM [3H]ketanserin (h5-HT2 receptor antagonist) as radioligands. […]
(§9) binding of the radioligands was defined as difference between total binding (binding buffer alone) and nonspecific binding determined in the presence of 10 μM pindolol (h5-HT1A receptor antagonist) or 10 μM spiperone (h 5-HT2A receptor antagonist).

h5-HT1A = molecular target: T2, h5-HT1A (Homo sapiens, UniProt P08908); test: Radioligand binding, h5-HT1A receptor ([3H]8-OH-DPAT)
T2 construct: expressed in transfected cells; host or cells: HEK 293 cells (membrane preparation)
T2 sequence (P08908 1-422): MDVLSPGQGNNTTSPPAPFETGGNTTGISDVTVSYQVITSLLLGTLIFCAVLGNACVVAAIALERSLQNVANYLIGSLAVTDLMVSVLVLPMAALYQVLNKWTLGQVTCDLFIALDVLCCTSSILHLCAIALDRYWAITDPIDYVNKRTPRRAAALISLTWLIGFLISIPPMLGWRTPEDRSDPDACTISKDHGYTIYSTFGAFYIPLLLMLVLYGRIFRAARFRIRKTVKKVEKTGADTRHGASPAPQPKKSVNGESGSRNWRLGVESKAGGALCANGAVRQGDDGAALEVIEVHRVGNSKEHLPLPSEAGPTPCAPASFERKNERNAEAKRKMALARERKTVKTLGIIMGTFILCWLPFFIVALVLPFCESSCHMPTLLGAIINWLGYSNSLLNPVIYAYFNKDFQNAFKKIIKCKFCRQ

hNET = molecular target: T3, hNET (Homo sapiens, UniProt P23975); test: Radioligand binding, hNET (N-methyl-[3H]nisoxetine)
T3 construct: expressed in transfected cells; host or cells: HEK 293 cells (membrane preparation)
T3 sequence (P23975 whole entry): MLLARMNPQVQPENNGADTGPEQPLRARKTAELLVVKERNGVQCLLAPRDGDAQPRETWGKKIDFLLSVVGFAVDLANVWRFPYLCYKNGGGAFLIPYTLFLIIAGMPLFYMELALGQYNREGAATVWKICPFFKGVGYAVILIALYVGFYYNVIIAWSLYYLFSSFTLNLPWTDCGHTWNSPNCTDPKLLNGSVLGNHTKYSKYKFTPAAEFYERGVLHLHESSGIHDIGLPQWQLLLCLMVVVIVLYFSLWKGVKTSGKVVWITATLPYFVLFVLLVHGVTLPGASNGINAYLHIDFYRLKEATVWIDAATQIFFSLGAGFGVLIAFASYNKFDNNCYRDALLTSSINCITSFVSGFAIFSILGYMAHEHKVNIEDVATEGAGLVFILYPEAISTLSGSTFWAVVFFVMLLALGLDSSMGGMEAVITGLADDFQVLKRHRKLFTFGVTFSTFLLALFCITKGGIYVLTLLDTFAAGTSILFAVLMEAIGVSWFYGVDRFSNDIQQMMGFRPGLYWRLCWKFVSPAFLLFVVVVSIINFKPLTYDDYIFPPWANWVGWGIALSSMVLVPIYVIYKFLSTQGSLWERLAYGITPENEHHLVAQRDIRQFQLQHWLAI
Procedure: as §1, §2, §3, §4, §5, §6, §7, §8, §9

h5-HT2B [1] = molecular target: T4, h5-HT2B (Homo sapiens, UniProt P41595); test: IP1 formation (Gαq-mediated signaling), h5-HT2B; type: cell-based; conditions: for Emax: read-out: IP1 formation Emax h5-HT2B (95% CI), normalized to maximal effect of 5-HT
T4 sequence (P41595 whole entry): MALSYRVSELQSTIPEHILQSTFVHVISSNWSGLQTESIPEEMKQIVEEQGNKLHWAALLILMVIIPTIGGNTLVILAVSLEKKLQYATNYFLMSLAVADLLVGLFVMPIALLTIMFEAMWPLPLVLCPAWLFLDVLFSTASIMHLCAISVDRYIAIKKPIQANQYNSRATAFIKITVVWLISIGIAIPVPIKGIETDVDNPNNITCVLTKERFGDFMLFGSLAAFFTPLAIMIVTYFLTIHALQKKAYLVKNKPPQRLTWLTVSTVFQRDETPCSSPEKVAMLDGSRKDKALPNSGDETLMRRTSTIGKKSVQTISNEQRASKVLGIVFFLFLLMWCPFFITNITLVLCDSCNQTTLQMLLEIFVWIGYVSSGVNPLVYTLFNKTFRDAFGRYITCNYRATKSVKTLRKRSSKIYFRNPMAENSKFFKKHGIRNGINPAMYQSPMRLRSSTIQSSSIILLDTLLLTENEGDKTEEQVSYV

h5-HT2B [2] = molecular target: T4, h5-HT2B; test: Radioligand binding, h5-HT2B receptor ([3H]LSD)
[3] = hSERT Ki, mean (95% CI), HEK 293 membranes

T1 sequence (P31645 whole entry): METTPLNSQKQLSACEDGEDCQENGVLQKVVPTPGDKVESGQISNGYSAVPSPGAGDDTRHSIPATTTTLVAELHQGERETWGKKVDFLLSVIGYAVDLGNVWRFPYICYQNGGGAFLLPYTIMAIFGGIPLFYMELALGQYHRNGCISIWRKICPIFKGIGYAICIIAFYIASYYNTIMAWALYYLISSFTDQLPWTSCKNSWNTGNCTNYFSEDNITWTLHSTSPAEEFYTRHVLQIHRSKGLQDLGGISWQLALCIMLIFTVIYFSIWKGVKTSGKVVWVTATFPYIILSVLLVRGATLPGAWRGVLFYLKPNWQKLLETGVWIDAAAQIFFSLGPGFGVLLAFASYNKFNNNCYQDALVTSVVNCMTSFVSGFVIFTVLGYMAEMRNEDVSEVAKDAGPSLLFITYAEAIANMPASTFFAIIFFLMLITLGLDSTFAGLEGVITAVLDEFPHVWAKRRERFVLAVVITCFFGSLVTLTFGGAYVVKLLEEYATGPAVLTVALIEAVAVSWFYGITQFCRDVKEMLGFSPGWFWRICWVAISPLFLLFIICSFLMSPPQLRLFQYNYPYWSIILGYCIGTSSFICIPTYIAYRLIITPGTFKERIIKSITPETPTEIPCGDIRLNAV

SMILES	pKi (hSERT; [3])	pKi (h5-HT1A)	pKi (hNET)	pEC50 (h5-HT2B [1])	Emax (h5-HT2B [1]) [%]	pKi (h5-HT2B [2])	pKi (h5-HT1A; read-out: Ki h5-HT1A (95% CI), receptor binding, HEK 293 membranes)	pKi (hSERT; Ki SERT, text value (range DAT and SERT 3.6–4.6))
CCc1cc(OC)c(CC(C)N)cc1OC (stereo not shown) [DOET, 4-ethyl-2,5-dimethoxyamphetamine]	< 5.15	5.24	< 5.10	6.63	95	6.76		
CCCCc1cc(OC)c(CC(C)N)cc1OC (stereo not shown) [DOBU, 4-butyl-2,5-dimethoxyamphetamine]	< 5.15	4.87	< 5.10	6.24	122	6.79		
CCCc1cc(OC)c(CC(C)N)cc1OC.Cl (stereo not shown) [DOPR, 4-propyl-2,5-dimethoxyamphetamine hydrochloride]	< 5.15	5.40	< 5.10	6.64	96	6.90		
COc1ccc(OC)c(CC(C)N)c1.Cl (stereo not shown) [2,5-DMA, 2,5-Dimethoxyamphetamine hydrochloride]	< 5.15	5.22	< 5.10	4.03	94	5.29		
COc1cc(CC(C)N)c(OC)cc1C (stereo not shown) [DOM, 4-methyl-2,5-dimethoxyamphetamine]	< 5.15		< 5.10	6.16	91	6.83	5.14	
CCCCCc1cc(OC)c(CC(C)N)cc1OC (stereo not shown) [DOAM, 4-amyl-2,5-dimethoxyamphetamine]	5.33	5.07	< 5.10	6.24	106	7.01		5.34
